Data on three molecules can be found in publication PMC12291464, “Modifying Antifungal Peptides as Safe Food Preservatives” (Journal of Agricultural and Food Chemistry, 2025).

One series concerns A. Niger. Conditions: 24 h. On the procedure:
(§1) A1163 was grown on potato dextrose agar (PDA) medium at 37 °C for 5 days, and then the conidia were scraped and suspended in PBS with 0.025% (v/v) Tween 20, counted using a hemocytometer, and kept at 4 °C. isolated from peanuts and Pe21 (both kindly provided by Dr. Edward Sionov, ARO, Israel) were grown on PDA medium at 25 °C for 5 days, and then the conidia were scraped and suspended in PBS with 0.025% Tween 20 and kept at 4 °C. RP and methicillin-resistant (MRSA) were grown on LB agar plates, and individual colonies were picked and grown in Mueller–Hinton (MH) broth overnight at 37 °C. was grown on PDA medium at 30 °C, and individual colonies were picked and grown in yeast extract peptone dextrose (YPD) media overnight at 30 °C. All fungal and bacteria strains were maintained at −80 °C in 50% (v/v) glycerol stock.
(§2) For filamentous fungi strains, serial dilutions of 100 μL ranged from 100 to 0.78 μM for each peptide in a 96 well plate using RPMI1640 with 165 μM MOPS. A total of 80 μL of inoculum was suspended with a conidia load of 5 × 10^3 CFU/mL (final density of 2 × 10^3 CFU/mL), and 20 μL of resazurin was diluted in RPMI1640 solution of 0.02% [final concentration of 0.0002% (w/v)]. In the control, 100 μL of treatment was replaced by the same volume with medium, while the negative control was 180 μL of the medium and 20 μL of resazurin solution. Plates were incubated at 37 °C for and 25 °C for and for 24 h. The results were quantified by measuring absorbance at 570 nm with a microplate reader (Tecan). The mean absorbance values were used in subsequent calculations. The growth of resazurin reduction and growth inhibition was calculated using the following normalization: % growth=100−% reduction=abs of test agent−abs of untreated control/abs of reduced resazurin−abs of untreated control The MIC was defined as the lowest concentration of the peptide that inhibited fungal growth by 90%, allowing for only 10% of the normal growth. For bacterial and yeast strains studies, serial dilutions of 100 μL ranged from 100 to 0.78 μM for each peptide in a 96 well plate using MH media for bacteria and YPD for yeast. A total of 100 μL of the microbe in suitable media (5 × 10^5 CFU/mL) was inoculated in each well. In the untreated well (e.g., control), 100 μL of treatment was replaced by the same volume with medium, while in the negative control, media were only without microbes and peptides. After 24 h of incubation at 37 °C for bacteria and 30 °C for yeast, plates were read at 595 nm and MIC was defined as the lowest concentration of peptide that reduced the growth of the microbe to 10% growth.

In another series the test system is A. fumigatus. Conditions: 24 h. Here is the method:
as §1, §2

For the next series, the system named is E. coli. Here is the method: as §1, §2
Another series has as its system MRSA. On the procedure:
as §1, §2

A further series concerns P. expansum. Conditions: 24 h. On the procedure:
as §1, §2

Another series has as its system HEK cells. Kind of series: Toxicity assay on the human cell line (MTT). Type of series: cell-based. The following applies: 100 to 0.78 μM peptide, 24 h, read at 595 nm, normalized to untreated cells; 3 biological repeats in triplicates. Here is the method: HEK cells were grown at 37 °C with 5% CO2 in Deulbecco’s modifield Eagle’s medium (DMEM, Sigma) with 2 mM L-glutamine, 1% (v/v) penicillin and streptomycin (Penstrep), and 20% (v/v) fetal bovine serum. The day before the experiment, cells were detached by gentle scraping, counted with a hemocytometer to a concentration of 10^6 cells/mL, and seeded into a 96-well microplate (Nunc, Thermo Scientific). The following day, serial dilutions from 100 to 0.78 μM for each peptide were introduced to the cells with DMEM lacking phenol red for 24 h. Later, 50 μL of 3-(4,5-dimethylthiazol-2-yl)-2,5-diphenyltetrazolium bromide (MTT, 0.5 mg/mL) was added to the wells for 2 h of incubation. At the end, 100 μL of DMSO was added for 30 min at 37 °C and 200 rpm, and the plate was read at 595 nm and normalized to the untreated cells.
Peptide Concentration [µM] Peptide Concentration [µM]
Supplementary 3. Cytotoxicity examination. HEK cells were cultured in DMEM with L-glutamine, PenStrep, and fetal bovine serum at 37°C and 5% CO2. The day before the experiment, cells were detached, counted (10^6 cells/ml), and seeded into a 96-well plate. […] Cell viability was assessed using the MTT assay; after adding 50µl of MTT and incubating for 2 hours, 100µl DMSO was added for 30minutes at 37 °C, 200rpm. Next, absorbance was measured at 595nm and normalized to untreated controls. […]

A further series deals with chymotrypsin (Bos taurus, UniProt P00766). Kind of series: Digestion examination of the peptides by chymotrypsin. On the procedure:
Peptides were dissolved in 1 mL of 100 μM NH4HCO3 to a final concentration of 4 mM, followed by the addition of 1 μL chymotrypsin (1 mg/mL), and were incubated at 37 °C and 150 rpm. At each time point, 75 μL of the solution was transferred to 90 °C for inactivation of the enzyme. After the peptides were frozen in liquid nitrogen and lyophilized, they were dissolved in DMSO and were analyzed in HPLC using Analytic Phenomenex Luna C18 (5 μm, 4.6 × 250 mm) with standard RP-HPLC conditions. The area under curve (AUC) was calculated at each time point and normalized to time = 0.
4 Peptide’s secondary structure and digestibility. (A) CD spectra of the peptides (50 μM) in DDW was measured using a J-1100 spectropolarimeter (Jasco), with the following parameters: wavelength range of 190–260 nm, bandwidth of 1 nm, data pitch of 0.1 nm, and three accumulations. A baseline spectrum was recorded using a 0.1 cm quartz cuvette filled with DDW and subtracted from the peptide spectrum to obtain the corrected CD spectrum. […] The area under the curve (AUC) was calculated at each time point and normalized to t = 0. The y axis ranges from 100%, meaning not digested at all, to 0%, meaning fully digested.

Series [1] has as its system filamentous fungi conidia (spores). Kind of series: Fungicidal assay (CFU log reduction). The format is cell-based. The following applies: 8 μM H2O2. On the procedure:
A 10^4 CFU/mL conidia load was incubated in yeast extract (YE) medium at 37 °C for and 25 °C for and at 200 rpm for 4 h, and 100 μL was transferred to 900 μL of PBS with peptide (final conidia load = 10^3 CFU/mL). The negative control had no peptides, and for the positive control, we used H2O2 (final concentration of 8 μM). The treated conidia were incubated for an additional 4 h at the same temperature at 200 rpm. Once the second incubation was over, the inoculum suspension was diluted, and 100 μL of both the original and the dilution was spread on Petri plates with PDA with tetracycline (10 μg/mL) and chloramphenicol (25 μg/mL) medium to exclude the growth of bacteria. The plates were incubated at matching temperatures depending on the strain. After 48 h, the CFU/mL was calculated; CFU/mL = number of counted CFU × 10^–n (n = serial dilution).
2 Fungicidal activity of BP100 and P-113 and their derivatives. Spores were counted using a hemocytometer and diluted to […]. After 4 h of incubation with the selected peptides in two different concentrations (25 and 100 μM), samples were diluted and both original and diluted samples were plated. Colonies were counted after 48 h of incubation and are presented as the log reduction of CFU/mL. […] The experiments were repeated 3 times (biological repeats) in triplicate (average ± SEM). […]

Where [2] appears, read: RPMI1640 with MOPS, resazurin, absorbance 570 nm, MIC = lowest concentration inhibiting growth by 90%, average ± SE, 3 biological repeats in triplicates.
Setting [3] is: MH media, 5 × 10^5 CFU/mL, 24 h at 37 °C, read at 595 nm, MIC = growth reduced to 10%, average ± SE, 3 biological repeats in triplicates.

≈ marks a conversion by molar mass, not a printed value. Read-outs that look alike come from different tables or passages of the source. Residues, ends and D or L forms follow the SMILES beside them.

With `C[C@H](N)C(=O)N[C@@H](CCCCN)C(=O)N[C@@H](CCCNC(=N)N)C(=O)N[C@@H](Cc1c[nH]cn1)C(=O)N[C@@H](Cc1c[nH]cn1)C(=O)NCC(=O)N[C@@H](Cc1ccc(O)cc1)C(=O)N[C@@H](CCCCN)C(=O)N[C@@H](CCCNC(=N)N)C(=O)N[C@@H](CCCCN)C(=O)N[C@@H](Cc1ccccc1)C(=O)N[C@@H](Cc1c[nH]cn1)C(=O)N[C@@H](C)C(=O)N[C@@H](CCCCN)C(=O)N[C@@H](CCCNC(=N)N)C(=O)N[C@@H](Cc1c[nH]cn1)C(=O)N[C@@H](Cc1c[nH]cn1)C(=O)NCC(=O)N[C@@H](Cc1ccc(O)cc1)C(=O)N[C@@H](CCCCN)C(=O)N[C@@H](CCCNC(=N)N)C(=O)N[C@@H](CCCCN)C(=O)N[C@@H](Cc1ccccc1)C(=O)N[C@@H](Cc1c[nH]cn1)C(=O)N[C@@H](C)C(=O)N[C@@H](CCCCN)C(=O)N[C@@H](CCCNC(=N)N)C(=O)N[C@@H](Cc1c[nH]cn1)C(=O)N[C@@H](Cc1c[nH]cn1)C(=O)NCC(=O)N[C@@H](Cc1ccc(O)cc1)C(=O)N[C@@H](CCCCN)C(=O)N[C@@H](CCCNC(=N)N)C(=O)N[C@@H](CCCCN)C(=O)N[C@@H](Cc1ccccc1)C(=O)N[C@@H](Cc1c[nH]cn1)C(N)=O` [P-113 Triple] (H-AKRHHGYKRKFHAKRHHGYKRKFHAKRHHGYKRKFH-NH2), in the series on A. Niger, the “MIC Values, A. Niger” value worked out at 16 ± 4 µM (≈ 74.5 µg/mL). The “MIC Values, A. fumigatus” value in the series on A. fumigatus is 5 ± 2 µM (≈ 23.3 µg/mL). In the series with E. coli (24 h), the “MIC Values, E. coli” value is 42 ± 14 µM (≈ 196 µg/mL). For the same molecule, the “MIC Values, MRSA” value against MRSA (24 h) is 25 ± 0 µM (≈ 116 µg/mL). In addition, the “MIC Values, P. expansum” value in the series on P. expansum was 5 ± 2 µM (≈ 23.3 µg/mL). Also, the “cytotoxicity against HEK mammalian cells (MTT assay)” value with HEK cells is recorded as “low to no cytotoxicity”. Further, on chymotrypsin (peptide 4 mM in 100 μM NH4HCO3, 1 μL chymotrypsin (1 mg/mL), 37 °C, 150 rpm, analytical RP-HPLC C18, AUC normalized to t = 0), the digestion by chymotrypsin entry was “fully degraded within a short time frame”.

For the molecule `OO` [H2O2], the “fungicidal activity, positive control” value in series [1] was “completely eradicated”.

On to `CC[C@H](C)[C@H](NC(=O)[C@H](CCCCN)NC(=O)[C@H](CCCCN)NC(=O)[C@H](Cc1ccccc1)NC(=O)[C@H](CC(C)C)NC(=O)[C@H](CCCCN)NC(=O)[C@@H](N)Cc1c[nH]c2ccccc12)C(=O)N[C@@H](CC(C)C)C(=O)N[C@@H](CCCCN)C(=O)N[C@@H](Cc1ccc(O)cc1)C(=O)N[C@@H](CC(C)C)C(N)=O` [BP100 K1W], for which the “MIC Values, A. Niger” value with A. Niger (setting [2]) stood at 10 ± 2 µM (≈ 14.8 µg/mL). Also, in the series with A. fumigatus (setting [2]), the “MIC Values, A. fumigatus” value is 8 ± 2 µM (≈ 11.8 µg/mL). The “MIC Values, E. coli” value with E. coli (setting [3]) was determined as 2 ± 0 µM (≈ 2.96 µg/mL). In the series with MRSA (setting [3]), the “MIC Values, MRSA” value amounted to 3 ± 0 µM (≈ 4.44 µg/mL). The “MIC Values, P. expansum” value against P. expansum (setting [2]) was 6 ± 0 µM (≈ 8.87 µg/mL). The “cytotoxicity against HEK mammalian cells (MTT assay)” value in the series with HEK cells was “low to no cytotoxicity”. The digestion by chymotrypsin entry at chymotrypsin is “fully degraded within a short time frame”.
